Assay results as given in the RepoRT retention time repository (doi:10.1016/j.foodchem.2021.129757).

Key:
Conditions in all cases: stereoisomer not certain
[1] = RP, 100 × 0.5 mm, 2.7 µm, 45 °C, 0.015 mL/min, estimated dead time 0.83 min; A: water + 0.9% formic acid; B: acetonitrile + 0.9% formic acid; gradient (min/%B) 0/1 0.5/1 4/95 4.5/1 5/1
[2] = RP, 50 × 0.5 mm, 2.7 µm, 35 °C, 0.01 mL/min, estimated dead time 0.62 min; A: water + 0.1% formic acid, pH 3; B: acetonitrile + 0.1% formic acid, pH 3; gradient (min/%B) 0/5 12/95 14/95 16/5
[3] = Other, Phenomenex Kinetex PFP, 100 × 4.6 mm, 5 µm, 45 °C, 0.6 mL/min, estimated dead time 1.8 min; A: water + 0.1% trifluoroacetic acid, pH 2; B: methanol; gradient (min/%B) 0/40 20/72 21/40
[4] = RP, 150 × 2.1 mm, 2.6 µm, 40 °C, 0.35 mL/min, estimated dead time 0.94 min; A: water + 0.1% formic acid, pH 3; B: acetonitrile + 0.1% formic acid, pH 3; gradient (min/%B) 0/0 1/0 12.5/100 14/100 14.2/0 15/0
[5] = RP, 150 × 2.1 mm, 2.6 µm, 40 °C, 0.35 mL/min, estimated dead time 0.94 min; A: water + 0.1% formic acid, pH 3; B: acetonitrile + 0.1% formic acid, pH 3; gradient (min/%B) 0/0 1/5 7/45 8.5/80 10.5/80 11/5 12/5
[6] = RP, Phenomenex Synergi Hydro-RP, 150 × 2 mm, 4 µm, 30 °C, 0.5 mL/min, estimated dead time 0.6 min; A: water + 0.1% formic acid, pH 3; B: acetonitrile + 0.1% formic acid, pH 3; gradient (min/%B) 0/5 1/5 35/45 40/100 45/100
[7] = RP, Phenomenex Luna Omega Polar C18, 100 × 2.1 mm, 1.6 µm, 40 °C, 0.5 mL/min, estimated dead time 0.44 min; A: water + 0.5% formic acid; B: acetonitrile + 0.5% formic acid; gradient (min/%B) 0/5 3/50 3.1/100 5/100 5.1/5 7/5
[8] = RP, Phenomenex Luna C18, 150 × 4.6 mm, 3 µm, 25 °C, 0.5 mL/min, estimated dead time 3.2 min; A: water + 0.1% formic acid, pH 3; B: acetonitrile + 0.1% formic acid, pH 3; gradient (min/%B) 0/0 30/30 35/40 50/80 52/80 60/0 65/0
[9] = RP, Merck LiChrospher RP-18, 250 × 4 mm, 5 µm, 35 °C, 0.3 mL/min, estimated dead time 6.7 min; A: water + 0.5% formic acid; B: acetonitrile + 0.5% formic acid; gradient (min/%B) 0/5 10/5 30/15 45/20 65/20 95/54 110/63 115/5 135/5
[10] = RP, Phenomenex Luna Omega Polar C18, 100 × 2.1 mm, 1.6 µm, 40 °C, 0.5 mL/min, estimated dead time 0.44 min; A: water + 0.1% formic acid + 10 mM ammonium formate; B: acetonitrile; gradient (min/%B) 0/5 8/20 10/100 12/100 12.1/5 14/5
[11] = RP, Waters ACQUITY UPLC HSS T3, 100 × 2.1 mm, 1.8 µm, 30 °C, 0.4 mL/min, estimated dead time 0.55 min; A: water + 0.1% formic acid, pH 3; B: acetonitrile + 0.1% formic acid, pH 3; gradient (min/%B) 0/0 2/0 15/100 22/100 22.1/0 26/0
[12] = RP, Agilent ZORBAX Eclipse XDB-C18, 100 × 2.1 mm, 1.8 µm, 50 °C, 0.4 mL/min, estimated dead time 0.55 min; A: water + 0.1% formic acid, pH 3; B: methanol + 0.1% formic acid, pH 3; gradient (min/%B) 0/2 10/100 14.5/100 14.51/2 16.5/2
[13] = RP, Waters ACQUITY UPLC BEH C18, 100 × 2.1 mm, 1.7 µm, 65 °C, 0.4 mL/min, estimated dead time 0.55 min; A: water + 0.1% formic acid, pH 3; B: 80% acetonitrile + 20% acetone + 0.1% formic acid, pH 3; gradient (min/%B) 0/0 5/100 5.5/0 6/0
[14] = RP, Waters ACQUITY UPLC BEH Shield RP18, 100 × 2.1 mm, 1.7 µm, 30 °C, 0.6 mL/min, estimated dead time 0.37 min; A: water + 0.1% formic acid, pH 3; B: acetonitrile + 0.1% formic acid, pH 3; gradient (min/%B) 0/0 2/0 7/10 22/95 22.1/0 26/0
[15] = RP, Waters ACQUITY UPLC BEH Shield RP18, 150 × 2.1 mm, 1.7 µm, 40 °C, 0.4 mL/min, estimated dead time 0.83 min; A: water + 0.1% formic acid, pH 3; B: acetonitrile + 0.1% formic acid, pH 3; gradient (min/%B) 0/0 30/50 31/100 37/100 37.1/0
[16] = RP, Agilent ZORBAX RRHD Eclipse Plus C18, 50 × 2.1 mm, 1.8 µm, 30 °C, 0.4 mL/min, estimated dead time 0.28 min; A: water + 0.1% formic acid, pH 3; B: acetonitrile + 0.1% formic acid, pH 3; gradient (min/%B) 0/1 5/10 8/25 9.1/99 10/99 12/1
[17] = RP, Agilent ZORBAX RRHD Eclipse Plus C18, 50 × 2.1 mm, 1.8 µm, 30 °C, 0.4 mL/min, estimated dead time 0.28 min; A: water + 0.1% formic acid, pH 3; B: acetonitrile + 0.1% formic acid, pH 3; gradient (min/%B) 0/1 5/10 8/25 9.1/99 10/99 12/99
[18] = RP, Merck Supelco SUPELCOSIL LC-C18, 250 × 4.6 mm, 5 µm, 40 °C, 1 mL/min, estimated dead time 2.6 min; A: water + 0.1% trifluoroacetic acid, pH 2; B: acetonitrile + 0.1% trifluoroacetic acid, pH 2; gradient (min/%B) 0/5 45/35 47/75 49/35 50/5
[19] = RP, Agilent InfinityLab Poroshell 120 EC-C18, 100 × 3 mm, 2.7 µm, 25 °C, 0.4 mL/min, estimated dead time 1.1 min; A: water + 0.1% formic acid, pH 3; B: acetonitrile + 0.1% formic acid, pH 3; gradient (min/%B) 0/5 10/25 20/40 24/90 25/90 26/5 30/5
[20] = RP, Phenomenex Synergi Hydro-RP, 250 × 2 mm, 4 µm, 25 °C, 0.2 mL/min, estimated dead time 2.5 min; A: water + 0.1% formic acid, pH 3; B: acetonitrile + 0.1% formic acid, pH 3; gradient (min/%B) 0/0.5 7/0.5 12/12.5 25/16.3 47/35 48/65 50/65 50.1/0.5
[21] = RP, Waters Atlantis T3, 100 × 2.1 mm, 3 µm, 40 °C, 0.3 mL/min, estimated dead time 0.73 min; A: water + 0.1% trifluoroacetic acid, pH 2; B: acetonitrile + 0.1% trifluoroacetic acid, pH 2; gradient (min/%B) 0/10 1/10 6/40 7/50 8/50 14/70 16/80 20/10 25/10
[22] = Other, Phenomenex Kinetex PFP, 100 × 4.6 mm, 2.6 µm, 35 °C, 1.5 mL/min, estimated dead time 0.71 min; A: water + 0.1% trifluoroacetic acid, pH 2; B: acetonitrile + 0.1% trifluoroacetic acid, pH 2; gradient (min/%B) 0/1 7/7.5 14/7.6 17/10 18.5/12 20/12.5 24/30 25/90 25.1/1 32/1
[23] = RP, Phenomenex Kinetex EVO C18, 100 × 2.1 mm, 2.6 µm, 40 °C, 0.4 mL/min, estimated dead time 0.55 min; A: water + 0.2% formic acid; B: acetonitrile + 0.2% formic acid; gradient (min/%B) 0/5 0.5/5 7/95 8/95 8.5/5 12/5
[24] = RP, Waters ACQUITY UPLC HSS T3, 100 × 2.1 mm, 50 °C; A: water + 0.1% formic acid, pH 3; B: 30% methanol + 70% acetonitrile + 0.1% formic acid, pH 3; gradient (min/%B) 0/5 1/8 2/15 3/40 4/70 4.5/100 5/100 6.4/100 6.6/5 6.8/5 7/5

LC retention time [1] | LC retention time [2] | LC retention time [3] | LC retention time [6] | LC retention time [7] | LC retention time [8] | LC retention time [9] | LC retention time [10] | LC retention time [11] | LC retention time [12] | LC retention time [13] | LC retention time [14] | LC retention time [15] | LC retention time [16] | LC retention time [17] | LC retention time [18] | LC retention time [19] | LC retention time [20] | LC retention time [21] | LC retention time [22] | SMILES | also measured
2.44 min | 4.13 min | 7.59 min | 14.4 min | 2.51 min | 23.8 min | 61.3 min | 6.79 min | 9.48 min | 4.64 min | 2.17 min | 12.5 min | 11.2 min | 7.16 min | 4.67 min | 21.7 min | 9.17 min | 32.7 min | 7.28 min | 20.7 min | COc1cc(/C=C/C(=O)O)ccc1O [Ferulic acid] | LC retention time [4]: 5.86 min; LC retention time [5]: 5.86 min
2.13 min | 2.59 min |  | 8.54 min | 2.01 min | 15.1 min |  | 3.2 min | 8.4 min | 3.29 min | 1.86 min | 6.13 min | 5.38 min | 4.73 min | 3.49 min |  | 6.09 min | 20.2 min |  | 7.15 min | O=C(O)CNC(=O)c1ccccc1 [Hippuric acid] | LC retention time [23]: 3.8 min; LC retention time [24]: 3.07 min
 | 1.76 min | 3.85 min | 5.02 min | 1.54 min | 9.27 min | 29.7 min | 2.06 min | 7.22 min | 2.31 min | 1.48 min | 5.2 min | 4.01 min | 2.12 min | 1.38 min | 7.9 min | 3.96 min | 16.4 min | 2.23 min | 4.92 min | O=C(O)c1ccc(O)c(O)c1 [Protocatechuic acid] | LC retention time [23]: 1.55 min
2.3 min | 3.84 min | 7.01 min |  | 2.39 min | 21.7 min | 56.2 min | 5.83 min | 9.24 min | 4.32 min | 1.99 min | 12.3 min | 10.8 min | 6.97 min | 6.96 min | 19 min | 8.4 min | 30.1 min | 6.73 min | 17.6 min | O=C(O)C=Cc1ccc(O)cc1 [p-Coumaric acid] | LC retention time [24]: 3.45 min
